Experimental data taken from paper PMC10114980, “Triple targeting of mutant EGFR^L858R/T790M, COX-2, and 15-LOX: design and synthesis of novel quinazolinone tethered phenyl urea derivatives for anti-inflammatory and anticancer evaluation” (Journal of Enzyme Inhibition and Medicinal Chemistry, 2023).

Key:
[1] = system: LPS-induced ROS production in RAW 264.7 cells; assay: ROS production in LPS-activated RAW 264.7 macrophage cells (DCFH-DA); type: cell-based; details: Mus musculus, RAW264.7; LPS-activated RAW 264.7 cells; mean ± SEM, three replicates
Description: TNF-α and IL-6 production were detected in RAW 264.7 macrophage cell culture supernatants following the induction of inflammation by LPS. Moreover, the probes of oxidative species 2,7-dichlorofluorescein diacetate (DCFH-DA) (Molecular Probes) and NO, 4-amino-5-methylamino-2,7-difluorofluorescein diacetate (DAF-FM diacetate) (Molecular Probes) were used to investigate the antioxidant and NO production inhibitory potential of the test compounds. Briefly, RAW 264.7 cells were cultured in black 96 well plates (200 000 cells/mL, 100 µl/well) for 24 h followed by the incubation with the individual test compounds or the reference drugs at different concentrations (12.5, 25, 50, and 100 µM) for 2 h at 37 °C. LPS was then added at a final concentration of 1 µg/mL for an additional 18 h. The cell culture supernatant was collected from cells treated with the different compounds at 25 µM to measure TNF-α and IL-6 levels (1:10 dilution) using DuoSet ELISA kits (R&D Systems, Minneapolis, MN) following the manufacturer’s instructions. Then, the plates were washed to perform ROS and NO detection assays as detailed in our previous studies[16]^,[27].

UACC-62 = assay: NCI single dose screen, UACC-62; type: cell-based; details: Homo sapiens; UACC-62, melanoma; single dose 10^−5 M; read-out: growth inhibition percentage
Description: (§1) Screening of the anticancer activity of the newly synthesised compounds (6a, 6c, 6d, 6e, 6j, 6l, 6m, 6n, 6o, and 6p) was performed by the US National Cancer Institute (NCI) using 60 different human tumour cell lines in accordance with standard procedures formerly reported.
(§2) In vitro anticancer screening was carried out for the selected compounds at a single dose (10^−5 M) against 60 different human tumour cell lines of nine different cancer cell types: leukaemia, lung, colon, CNS, melanoma, ovarian, renal, prostate, and breast cancers.

NCI-H460 = assay: NCI single dose screen, NCI-H460; type: cell-based; details: Homo sapiens; NCI-H460, non-small cell lung cancer; single dose 10^−5 M; read-out: growth inhibition percentage
Description: as §1, §2

NCI/ADR-RES = assay: NCI single dose screen, NCI/ADR-RES; type: cell-based; details: Homo sapiens, ovarian cancer, single dose 10^−5 M, read-out: growth inhibition percentage
Description: as §1, §2

[2] = Cell viability assay against normal cell line (MTS); type: cell-based; details: mouse, RAW 264.7 cells, concentrations up to 50 μM, read-out: cell viability percentage of the control values
Description: To evaluate the possible non-selective cytotoxic effect of the investigated compounds (6a, 6c, 6d, 6e, 6j, 6l, 6m, 6n, 6o, and 6p) on normal cells, their effect on RAW 264.7 cells viability was assessed at different concentrations (12.5, 25, 50, and 100 µM). Cell viability was measured using 3-(4,5-dimethylthiazol-2-yl)-5-(3-carboxymethoxyphenyl)-2-(4 sulfophenyl)-2H-tetrazolium (MTS) assay (Promega, Madison, Wisconsin) according to the manufacturer’s instructions.

SW-620 = assay: NCI single dose screen, SW-620; type: cell-based; details: Homo sapiens; SW-620, colon cancer; single dose 10^−5 M; read-out: growth inhibition percentage
Description: as §1, §2

UACC-257 = assay: NCI single dose screen, UACC-257; type: cell-based; details: Homo sapiens; UACC-257, melanoma; single dose 10^−5 M; read-out: growth inhibition percentage
Description: as §1, §2

A498 = assay: NCI single dose screen, A498; type: cell-based; details: Homo sapiens; A498, renal cancer; single dose 10^−5 M; read-out: growth inhibition percentage
Description: as §1, §2

PC-3 = assay: NCI single dose screen, PC-3; type: cell-based; details: Homo sapiens; PC-3, prostate cancer; single dose 10^−5 M; read-out: growth inhibition percentage
Description: as §1, §2

DU-145 = assay: NCI single dose screen, DU-145; type: cell-based; details: Homo sapiens; DU-145, prostate cancer; single dose 10^−5 M; read-out: growth inhibition percentage
Description: as §1, §2

MDA-MB-468 = assay: NCI single dose screen, MDA-MB-468; type: cell-based; details: Homo sapiens; MDA-MB-468, breast cancer; single dose 10^−5 M; read-out: growth inhibition percentage
Description: as §1, §2

SK-OV-3 = assay: NCI single dose screen, SK-OV-3; type: cell-based; details: Homo sapiens; SK-OV-3, ovarian cancer; single dose 10^−5 M; read-out: growth inhibition percentage
Description: as §1, §2

K-562 = assay: NCI single dose screen, K-562; type: cell-based; details: Homo sapiens, K562; K-562, leukaemia; single dose 10^−5 M; read-out: growth inhibition percentage
Description: as §1, §2

KM12 = assay: NCI single dose screen, KM12; type: cell-based; details: Homo sapiens; KM12, colon cancer; single dose 10^−5 M; read-out: growth inhibition percentage
Description: as §1, §2

soybean 15-LOX = target: T1, soybean 15-LOX (Glycine max, UniProt P08170); assay: 15-LOX inhibitor screening assay (Cayman); type: biochemical; details: mean ± SEM, n = 3 replicates
T1 sequence (P08170 1-839): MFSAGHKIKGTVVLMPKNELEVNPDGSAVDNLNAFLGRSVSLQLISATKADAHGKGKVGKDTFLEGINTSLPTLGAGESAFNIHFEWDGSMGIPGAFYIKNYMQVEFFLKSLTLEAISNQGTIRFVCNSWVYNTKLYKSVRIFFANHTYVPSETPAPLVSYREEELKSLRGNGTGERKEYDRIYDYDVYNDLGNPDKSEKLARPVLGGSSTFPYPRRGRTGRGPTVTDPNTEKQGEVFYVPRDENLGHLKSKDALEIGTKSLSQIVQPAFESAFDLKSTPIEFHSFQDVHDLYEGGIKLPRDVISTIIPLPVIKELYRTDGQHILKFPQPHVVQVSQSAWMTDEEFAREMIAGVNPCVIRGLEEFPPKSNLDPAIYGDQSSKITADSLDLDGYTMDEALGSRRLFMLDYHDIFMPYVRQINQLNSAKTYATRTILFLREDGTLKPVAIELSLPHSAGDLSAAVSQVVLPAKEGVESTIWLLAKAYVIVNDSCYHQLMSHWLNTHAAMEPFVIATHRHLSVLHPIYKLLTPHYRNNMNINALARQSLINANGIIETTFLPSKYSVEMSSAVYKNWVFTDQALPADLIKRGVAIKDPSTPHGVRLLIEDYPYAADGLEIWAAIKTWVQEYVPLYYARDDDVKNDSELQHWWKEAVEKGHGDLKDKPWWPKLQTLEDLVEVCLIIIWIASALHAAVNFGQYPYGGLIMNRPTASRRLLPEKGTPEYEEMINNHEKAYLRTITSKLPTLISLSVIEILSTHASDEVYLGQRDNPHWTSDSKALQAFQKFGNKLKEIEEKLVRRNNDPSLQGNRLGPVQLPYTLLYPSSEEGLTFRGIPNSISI

CN1CN(NC(=O)Nc2ccccc2)C(=O)c2ccccc21 [Compound 6a, 1-(1-Methyl-4-oxo-1,4-dihydroquinazolin-3(2H)-yl)-3-phenylurea]
IC50 [1]: 35.7 ± 1.08 µM
inhibition at 10 µM (UACC-62): < 10%
inhibition at 10 µM (NCI-H460): < 10%
inhibition at 10 µM (NCI/ADR-RES): < 10%
viability [2]: > 90%
inhibition at 10 µM (SW-620): < 10%
inhibition at 10 µM (UACC-257): < 10%
inhibition at 10 µM (A498): < 10%
inhibition at 10 µM (PC-3): < 10%
inhibition at 10 µM (DU-145): < 10%
inhibition at 10 µM (MDA-MB-468): < 10%
inhibition at 10 µM (SK-OV-3): < 10%
inhibition at 10 µM (K-562): < 10%
inhibition at 10 µM (KM12): < 10%
IC50 (soybean 15-LOX): 1.48 ± 0.27 µM

CN1c2ccccc2C(=O)N(NC(=O)Nc2ccccc2)C1c1ccc(F)cc1 (stereo not drawn) [Compound 6d, 1-(2-(4-Fluorophenyl)-1-methyl-4-oxo-1,4-dihydroquinazolin-3(2H)-yl)-3-phenylurea]
IC50 [1]: 37 ± 1 µM
inhibition at 10 µM (UACC-62): 15.1%
inhibition at 10 µM (NCI-H460): < 10%
inhibition at 10 µM (NCI/ADR-RES): < 10%
viability [2]: > 90%
inhibition at 10 µM (SW-620): < 10%
inhibition at 10 µM (UACC-257): < 10%
inhibition at 10 µM (A498): < 10%
inhibition at 10 µM (PC-3): 18.6%
inhibition at 10 µM (DU-145): < 10%
inhibition at 10 µM (MDA-MB-468): < 10%
inhibition at 10 µM (SK-OV-3): < 10%
inhibition at 10 µM (K-562): < 10%
inhibition at 10 µM (KM12): < 10%
IC50 (soybean 15-LOX): 1.96 ± 0.23 µM
